Measured values as given in US20150105252A1, “SUBSTITUTED PYRAZOLES AS HERBICIDES” (E I DU PONT DE NEMOURS AND COMPANY, priority 2013, published 2015).

Tests used:
[1] = system: ragweed; test: Test C preemergence; type: in vivo, Ambrosia elation; details: for Ragweed plant response rating / Plant response rating, Ragweed: preemergence; for Plant response rating, Ragweed: scale 0 to 100, 0 = no effect, 100 = complete control
From the text: (§1) Seeds of plant species selected from blackgrass (Alopecurus myosuroides), ryegrass, Italian (Italian ryegrass, Lolium multiflorum), wheat (winter wheat, Triticum aestivum), galium (catchweed bedstraw, Galium aparine), corn (Zea mays), crabgrass, large (large crabgrass, Digitaria sanguinalis), foxtail, giant (giant foxtail, Setaria faberii), johnsongrass (Sorghum halepense), lambsquarters (Chenopodium album), morningglory (Ipomoea coccinea), nutsedge, yellow (yellow nutsedge, Cyperus esculentus), pigweed (redroot pigweed, Amaranthus retroflexus), ragweed (common ragweed, Ambrosia elation), soybean (Glycine max), barnyardgrass (Echinochloa crus-galli), oilseed rape (Brassica napus), waterhemp (common waterhemp, Amaranthus rudis), oat, wild (wild oat, Avena fatua), kochia (Kochia scoparia), Surinam grass (Brachiaria decumbens), foxtail, green (green foxtail, Setaria viridis), goosegrass (Eleusine indica), bromegrass, downy (downy bromegrass, Bromus tectorum), nightshade (eastern black nightshade, Solanum ptycanthum), cocklebur (common cocklebur, Xanthium strumarium), cupgrass, woolly (woolly cupgrass, Eriochloa villosa), bermudagrass (Cynodon dactylon), sunflower, (common oilseed sunflower, Helianthus annuus), Russian thistle (Salsola kali), and velvetleaf (Abutilon theophrasti) were planted into a blend of loam soil and sand and treated preemergence with test chemicals formulated in a non-phytotoxic solvent mixture which included a surfactant.
(§2) At the same time, plants selected from these crop and weed species and also chickweed (common chickweed, Stellaria media), canarygrass (littleseed canarygrass, Phalaris minor), and deadnettle (henbit deadnettle, Lamium amplexicaule), were planted in pots containing Redi-Earth® planting medium (Scotts Company, 14111 Scottslawn Road, Marysville, Ohio 43041) comprising spaghnum peat moss, vermiculite, wetting agent and starter nutrients and treated with postemergence applications of test chemicals formulated in the same manner. Plants ranged in height from 2 to 18 cm (1- to 4-leaf stage) for postemergence treatments. Treated plants and controls were maintained in a greenhouse for 13 to 15 days, after which time all species were compared to controls and visually evaluated. Plant response ratings, summarized in Table C, are based on a scale of 0 to 100 where 0 is no effect and 100 is complete control. A dash (-) response means no test result.

[2] = system: soybean; test: Test C preemergence; type: in vivo, Glycine max; details: for Soybean plant response rating / Plant response rating, Soybean: preemergence; for Plant response rating, Soybean: scale 0 to 100, 0 = no effect, 100 = complete control
From the text: as §1, §2

[3] = system: barnyardgrass; test: Test C preemergence; type: in vivo, Echinochloa crus-galli; details: for Barnyardgrass plant response rating / Plant response rating, Barnyardgrass: preemergence; for Plant response rating, Barnyardgrass: scale 0 to 100, 0 = no effect, 100 = complete control
From the text: as §1, §2

[4] = system: waterhemp; test: Test C preemergence; type: in vivo, Amaranthus rudis; details: for Waterhemp plant response rating / Plant response rating, Waterhemp: preemergence; for Plant response rating, Waterhemp: scale 0 to 100, 0 = no effect, 100 = complete control
From the text: as §1, §2

[5] = system: velvetleaf; test: Test C preemergence; type: in vivo, Abutilon theophrasti; details: for Velvetleaf plant response rating / Plant response rating, Velvetleaf: preemergence; for Plant response rating, Velvetleaf: scale 0 to 100, 0 = no effect, 100 = complete control
From the text: as §1, §2

[6] = system: crabgrass, large; test: Test A preemergence; type: in vivo, Digitaria sanguinalis; details: preemergence; for Crabgrass, Large plant response rating (0 to 100 scale): visual injury approx. 10 days after treatment
Summary of the method: (§3)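 Scoring was visual, on a scale where 100 means complete control and 0 means no effect, comparing treated with untreated plants around 10 days post-application. Compounds in surfactant-containing non-phytotoxic solvent were sprayed onto soil preemergence or onto one- to two-leaf seedlings (2–10 cm) postemergence.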

[7] = system: wheat; test: Test A preemergence; type: in vivo, Triticum aestivum; details: preemergence; for Wheat plant response rating (0 to 100 scale): visual injury approx. 10 days after treatment
Summary of the method: as §3

[8] = system: morningglory; test: Test A postemergence; type: in vivo, Ipomoea spp.
Summary of the method: as §3

[9] = 31 g ai/ha, visual rating, scale 0 to 100 (0 no effect, 100 complete control), 13 to 15 days
[10] = 62 g ai/ha, scale 0 to 100 (0 no effect, 100 complete control), 13 to 15 days
[11] = 125 g ai/ha, scale 0 to 100, 0 is no effect, 100 is complete control
[12] = 125 g ai/ha, visual injury, 0 to 100 scale, approx. 10 days
[13] = 500 g ai/ha, visual injury after approx. 10 days, 0 to 100 scale (0 no effect, 100 complete control)
[14] = Postemergence, 500 g ai/ha, 0 to 100 scale (0 no effect, 100 complete control)
[15] = postemergence, 125 g ai/ha, about 10 days, visual rating on 0 to 100 scale (0 no effect, 100 complete control)
[16] = 250 g ai/ha, scale 0 to 100, 0 is no effect, 100 is complete control

| Structure (SMILES) | Ragweed plant response rating [1, 9] | Ragweed plant response rating [1, 10] | Soybean plant response rating [2, 9] | Soybean plant response rating [2, 10] | Barnyardgrass plant response rating [3, 10] | Waterhemp plant response rating [4, 9] | Waterhemp plant response rating [4, 10] | Velvetleaf plant response rating [5, 9] | Velvetleaf plant response rating [5, 10] | Crabgrass, Large plant response rating [6, 13] | Wheat plant response rating [7, 13] | Morningglory plant response rating [8, 14] | Plant response rating, Ragweed ([1]; 125 g ai/ha, 13 to 15 days) | Ragweed plant response rating [1, 16] | Plant response rating, Soybean ([2]; 125 g ai/ha, 13 to 15 days) | Soybean plant response rating [2, 16] | Barnyardgrass plant response rating [3, 9] | Plant response rating, Barnyardgrass ([3]; 125 g ai/ha, 13 to 15 days) | Barnyardgrass plant response rating [3, 16] | Plant response rating, Waterhemp ([4]; 125 g ai/ha, 13 to 15 days) | also measured |
| --- | --- | --- | --- | --- | --- | --- | --- | --- | --- | --- | --- | --- | --- | --- | --- | --- | --- | --- | --- | --- | --- |
| CCONC(=O)c1cc(CC)n(Cc2cc(C(F)(F)F)no2)n1 [Compound 125] | 5 | 10 | 5 | 5 | 50 | 65 | 65 | 20 | 20 |  |  |  |  |  |  |  |  |  |  |  | Plant response rating (scale of 0 to 100), Ragweed ([1]; Preemergence, 250 g ai/ha): 75; Ragweed plant response rating [1, 11]: 55; Plant response rating (scale of 0 to 100), Soybean ([2]; Preemergence, 250 g ai/ha): 15; Soybean plant response rating [2, 11]: 10; Plant response rating (scale of 0 to 100), Barnyardgrass ([3]; Preemergence, 250 g ai/ha): 100; Barnyardgrass plant response rating ([3]; 31 g ai/ha, scale 0 to 100 (0 no effect, 100 complete control), 13 to 15 days): 5; Barnyardgrass plant response rating [3, 11]: 80; Plant response rating (scale of 0 to 100), Waterhemp ([4]; Preemergence, 250 g ai/ha): 90; Waterhemp plant response rating [4, 11]: 85; Plant response rating (scale of 0 to 100), Velvetleaf ([5]; Preemergence, 250 g ai/ha): 40; Velvetleaf plant response rating [5, 11]: 30 |
| O=C(NCC(F)(F)F)c1cc(CCCl)n(Cc2ccnc(C(F)(F)F)c2)n1 [Compound 143] | 98 | 98 | 35 | 85 | 100 | 98 | 98 | 100 | 98 | 100 | 100 | 100 | 95 | 100 | 98 | 98 | 75 | 100 | 100 | 100 | Crabgrass, Large plant response rating [6, 12]: 100; Wheat plant response rating [7, 12]: 70; Morningglory plant response rating [8, 15]: 40; Waterhemp plant response rating [4, 16]: 100; Plant response rating, Velvetleaf ([5]; 125 g ai/ha, 13 to 15 days): 100; Velvetleaf plant response rating [5, 16]: 100 |
| CCCNC(=O)c1cc(CCCl)n(Cc2ccnc(C(F)(F)F)c2)n1 [Compound 145] | 75 | 95 | 20 | 70 |  | 98 | 100 | 90 | 100 | 100 | 100 | 100 | 95 | 98 | 85 | 95 | 95 | 100 | 100 | 100 | Crabgrass, Large plant response rating (0 to 100 scale) ([6]; 125 g ai/ha): 100; Wheat plant response rating (0 to 100 scale) ([7]; 125 g ai/ha): 40; Morningglory plant response rating [8, 15]: 80; Waterhemp plant response rating [4, 16]: 100; Plant response rating, Velvetleaf ([5]; 125 g ai/ha, 13 to 15 days): 100; Velvetleaf plant response rating [5, 16]: 100 |
| CCNC(=O)c1cc(CCCl)n(Cc2ccnc(C(F)(F)F)c2)n1 [Compound 179] | 90 | 98 | 35 | 65 | 98 | 100 | 100 | 35 | 80 | 100 | 100 | 100 | 98 | 98 | 85 | 98 | 60 | 100 | 100 | 100 | Crabgrass, Large plant response rating (0 to 100 scale) ([6]; 125 g ai/ha): 100; Wheat plant response rating (0 to 100 scale) ([7]; 125 g ai/ha): 10; Morningglory plant response rating [8, 15]: 60; Waterhemp plant response rating [4, 16]: 100; Plant response rating, Velvetleaf ([5]; 125 g ai/ha, 13 to 15 days): 100; Velvetleaf plant response rating [5, 16]: 100 |
| CCONC(=O)c1cc(OCC)n(Cc2ccnc(C(F)(F)F)c2)n1 [Compound 195] |  | 85 | 5 | 5 | 85 |  | 100 | 15 | 60 | 100 | 100 | 100 | 90 | 98 | 25 | 60 | 60 | 100 | 100 | 100 | Crabgrass, Large plant response rating (0 to 100 scale) ([6]; 125 g ai/ha): 100; Wheat plant response rating (0 to 100 scale) ([7]; 125 g ai/ha): 80; Morningglory plant response rating ([8]; Postemergence, 125 g ai/ha, 0 to 100 scale, 0 no effect, 100 complete control): 70; Waterhemp plant response rating [4, 16]: 100; Plant response rating, Velvetleaf ([5]; 125 g ai/ha, 13 to 15 days): 100; Velvetleaf plant response rating [5, 16]: 100 |
